The record followed here is patent publication US9902759B2, “BH3 peptides and methods of use thereof” (Dana-Farber Cancer Institute, Inc., priority 2002, dated 2018).

pIC50, pKd: −log10 of the molar value. Ends that are not written are not given here.

In assay [1] the test system is B-cell lymphoblastic leukemia. Description: Doxycycline treatment of tet-BCL-2/MMTV-tTA/Eμ-myc leukemic mice. The class given is in vivo, mouse. To be noted: doxycycline 500 μg/ml in drinking water, from 4-5 weeks of age. The source says:
Using standard recombinant DNA technology, the tet-BCL-2 allele was targeted to the DNA methyltransferase 1 locus (FIG. 10). By crossing the new mouse line with the MMTV-tTA line (Jackson Labs) mice were generated which conditionally overexpress BCL-2 in epithelial cells and in B-lineage lymphocytes. Administration of doxycycline successfully suppresses BCL-2 overexpression in these animals. When these mice are crossed with mice expressing myc in the B-lymphocyte lineage (Eμ-myc mice, Jackson Labs) mice which uniformly have B-cell lymphoblastic leukemia were obtained.
To examine the effect of removing BCL-2 expression form the leukemia cells, the effects of doxycycline treatment in a cohort of 28 mice were examined. By genotype, each of the 28 mice contained the tet-BCL-2, the MMTV-tTA, and the Eμ-myc alleles. […] At 4-5 weeks of age, half were treated with doxycycline (500 μg/ml) in drinking water, and half were left untreated. The WBC was measured by hemocytometer using 2 μl blood from tail which was lysed with 0.3% saponin and stained with Hoechst 33258.

The target in assay [2] is T1, GST-BCL-2 (Homo sapiens, UniProt P10415).
T1 construct: a GST-BCL-2 fusion protein lacking the C-terminal transmembrane domain was utilized; made in house; host or cells: E. coli BL21 DE3
The assay is described as follows: Fluorescence polarization binding of fluoresceinated BH3 peptides to GST-BCL-2. To be noted: Kd (nM), BCL-2 Binding, 25 nM fluoresceinated peptide, GST-BCL-2 titration, 37° C. The source says: (§1) To determine Kd for peptide binding to BCL-2, a GST-BCL-2 fusion protein lacking the C-terminal transmembrane domain was utilized. Peptides were synthesized with a fluorescein amino-terminus using an AHA linker. […] An increase in fluorescence polarization measured on a Perkin-Elmer LS 50B luminescence spectrophotometer was quantitated to calculate binding. A non-linear fit to a sigmoidal dose-response curve utilized the program Origin 6.0 to determine Kd. […] Data were fitted to a sigmoidal curve as above, and IC50 determined.
(§2) GST-BCL-2δC21 fusion proteins were induced in BL21 DE3 by 0.1 mM IPTG. The bacterial pellets were resuspended in lysis buffer (1 mg/ml lysozyme/1% Triton X-100/0.1 mg/ml PMSF/2 μg/ml aprotinin/2 μg/ml leupeptine/1 μg/ml pepstatin A in PBS) and sonicated. After centrifugation at 20,000×g for 20 min, the supernatant was applied to glutathione-agarose beads (Sigma). The beads were washed with PBS and treated with 50 mM glutathione/50 mM TrisHCl, pH8.0 to elute protein. Eluate was dialyzed against binding buffer and concentrated using Amicon centrifugal concentrating devices.
In general terms: Polarisation of emitted light reports the rotation of a fluorescent probe.

Assay [3] concerns the target T1, GST-BCL-2. Description: BH3 peptide displacement from GST-BCL-2 by fluorescence polarization. The class given is binding.
Description: as §1, §2

In the next assay the target is MCL-1 (Homo sapiens, UniProt Q07820). Description: MCL-1 binding.
MCL-1, sequence (Q07820 whole entry, species assumed): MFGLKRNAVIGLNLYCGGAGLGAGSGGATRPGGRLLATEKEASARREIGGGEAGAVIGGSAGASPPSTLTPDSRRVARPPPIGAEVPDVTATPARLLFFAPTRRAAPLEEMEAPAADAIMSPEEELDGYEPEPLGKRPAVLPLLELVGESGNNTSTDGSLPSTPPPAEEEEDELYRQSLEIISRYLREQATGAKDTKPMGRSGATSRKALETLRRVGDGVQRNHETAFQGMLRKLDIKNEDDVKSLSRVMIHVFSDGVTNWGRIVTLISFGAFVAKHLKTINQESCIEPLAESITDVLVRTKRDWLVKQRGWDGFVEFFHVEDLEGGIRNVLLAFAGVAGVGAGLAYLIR

T1 sequence (P10415 1-218 limits assumed): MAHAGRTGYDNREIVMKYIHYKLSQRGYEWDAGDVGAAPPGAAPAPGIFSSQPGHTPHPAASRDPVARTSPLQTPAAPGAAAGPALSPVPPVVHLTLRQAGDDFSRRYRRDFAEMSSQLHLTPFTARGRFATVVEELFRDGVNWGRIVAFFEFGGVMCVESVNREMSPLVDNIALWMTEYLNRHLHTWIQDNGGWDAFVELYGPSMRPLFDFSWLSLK

For `C[C@H]1c2cccc(O)c2C(=O)C2=C(O)[C@]3(O)C(=O)C(C(N)=O)=C(O)[C@@H](N(C)C)[C@@H]3[C@@H](O)[C@@H]21` [doxycycline], in assay [1], the “decrease in WBC” value was 1-2 log.
On GST-BCL-2 [2], EDIIRNIARHAAQVGASMDR [BIDBH3 mut] showed a Kd of over 1000 nM. At GST-BCL-2 [3], this compound gave a negative-log IC50 (pIC50) of under 4.52. For the same compound, the negative logarithm of the Kd (pKd) at MCL-1 was under 5.59.

The term Kd denotes the equilibrium constant for the complex coming apart. A lower Kd goes with tighter binding. A word on the pIC50: it is the negative decadic logarithm of the IC50, by convention in mol/L. High values mean a small IC50, low ones a large IC50. In general, pKd refers to −log10 of the Kd, conventionally taken in molar units. A low value points to a high Kd.
